Each structure is given as a SMILES string. Values after ≈ are worked out from the molar mass of the structure shown.

For assay [1], the system named is Staphylococcus aureus (ATCC-6538). Kind of assay: Antibacterial assay, micro broth dilution. Conditions: ATCC6538, read-out: S. aureus MIC. The assay is classed as cell-based. For orientation: Broth dilution looks for growth in wells or tubes with falling amounts of substance.
Assay [2] can be described thus: Total antioxidant capacity (TAC assay). To be noted: rank among the synthetic compounds. Here is the method:
This evaluation was based on the protocol by ([Bibi et al., 2011]). This mechanism’s key point is reducing Mo (VI) to Mo (V). A solution consisting of 4 mM Ammonium molybdate, 28 mM SodiumPhosphate, and 0.6 M Sulphuric acid is utilized, which forms Phosphate Molybdenum Complex which is green in color and gives absorption = […]. […] of the sample is added to […] of reagent, which is incubated at 95°C for one and a half hours and cooled to 25°C.
The antioxidant potential of test compounds was estimated by TAC &TRP assays. The spectrophotometric method was used to analyze the formation of the green-colored phosphomolibdenum compound. […] The findings are depicted in Figure 6.

Assay [3] deals with Pseudomonas aeruginosa (ATCC-15442). As to the kind of experiment: Antibacterial assay, micro broth dilution. The assay is classed as cell-based. To be noted: ATCC15442.
For assay [4], the system named is Escherichia coli (ATCC-25922). Kind of assay: Antibacterial assay, micro broth dilution. The assay is classed as cell-based. Conditions: ATCC25922, read-out: E. coli MIC.

Regarding `S=c1[nH]nc(Cc2c[nH]c3ccccc23)n1N=Cc1cccc(Cl)c1` [Compound 5f], the MIC (in general, the least concentration at which growth counts as inhibited) in assay [1] amounted to 25 µg/mL (≈ 68 µM).
With `COc1cccc(C=Nn2c(Cc3c[nH]c4ccccc34)n[nH]c2=S)c1` [Compound 5b], in assay [2], the “activity in the TAC assay (in words)” value is given as “maximum activity”. This molecule also had an MIC in assay [3] of 12.5 µg/mL (≈ 34.4 µM).
Regarding `Oc1ccc(C=Nn2c(Cc3c[nH]c4ccccc34)n[nH]c2=S)cc1` [Compound 5e], the MIC in assay [4] amounted to 25 µg/mL (≈ 71.5 µM); in assay [3] it was 3.12 µg/mL (≈ 8.93 µM).
As to `O=[N+]([O-])c1ccc(C=Nn2c(Cc3c[nH]c4ccccc34)n[nH]c2=S)cc1` [Compound 5d], in assay [4], the MIC was found to be 25 µg/mL (≈ 66.1 µM).
As to `Oc1cccc(C=Nn2c(Cc3c[nH]c4ccccc34)n[nH]c2=S)c1` [Compound 5a], inhibition of growth in assay [3] (MIC) required 12.5 µg/mL (≈ 35.8 µM).
In the case of `S=c1[nH]nc(Cc2c[nH]c3ccccc23)n1N=Cc1ccc(Cl)cc1` [Compound 5c], in assay [4], the MIC was determined as 25 µg/mL (≈ 68 µM).
`COc1cc(C=Nn2c(Cc3c[nH]c4ccccc34)n[nH]c2=S)cc(OC)c1OC` [Compound 5g]: the MIC in assay [1] is 25 µg/mL (≈ 59 µM).

Values taken from PMC10009108, “Design, synthesis and screening of indole acetic acid-based tri-azo moieties as antioxidants, anti-microbial and cytotoxic agents” (Frontiers in Pharmacology, 2023).
